Laboratory results as given in patent EP4768499A1, “MACROCYCLIC PEPTIDE COMPOUND HAVING CELL MEMBRANE PERMEABILITY AND METABOLIC STABILITY, AND LIBRARY CONTAINING SAME” (Chugai Seiyaku Kabushiki Kaisha, priority 2023, dated 2025).
Starred links: 1 amine or outer side, 2 acyl side, 3 side chain; linkers in the order of their positions; H or OH if unused. Positions of bridges follow the written chain, without caps; N, C: chain ends. Non-standard residues stand in square brackets, D forms with d. Residues, ends and D or L forms follow the SMILES beside them. *: point of attachment. NMeF = CN[C@@H](Cc1ccccc1)C(=O)O; NMeGABA = CN(CCCC(=O)[*:2])[*:1]; NMeI = CC[C@H](C)[C@H](NC)C(=O)O; NMeT = CN[C@H](C(=O)O)[C@@H](C)O; hPhe = N[C@@H](CCc1ccccc1)C(=O)O; NMeβAla = CN(CCC(=O)[*:2])[*:1]; NMeD = CN[C@@H](CC(=O)O)C(=O)O; NMeL = CN[C@@H](CC(C)C)C(=O)O; NMeV = CN[C@H](C(=O)O)C(C)C; d(β3hA) = C[C@@H](N)CC(=O)O; NMeAbu = CC[C@H](NC)C(=O)O; NMeA = CN[C@@H](C)C(=O)O; Piperidide = C1CCN(*)CC1; Abu = CC[C@H](N)C(=O)O; NBuGly = CCCCNCC(=O)O; Sar = CNCC(=O)O; tBu = CC(C)(C)*

Columns and labels:
[1] = Metabolic stability test: liver microsomal stability assay; type: in vitro ADME, mouse; conditions: mouse liver microsomes 0.5 mg protein/mL, compound 1 µM; for microsomal CLint at 1 µM: male, pH 7.4, presence of NADPH, read-out: Mouse Hepatic Microsome CLh,int NADPH(+); for Mouse Hepatic Microsome CLh,int NADPH(-): absence of NADPH
[2] = Membrane permeability test using Caco-2 cells with preincubation; type: in vitro ADME; conditions: Caco-2; preincubation 20 to 24 hours; Apical FaSSIF/HBSS pH 6.0, Basal HBSS 4% BSA pH 7.4; 180 minutes; read-out: Caco2 Papp
[3] = tested on: Caco-2 cells; assay: as above; type: in vitro ADME; conditions: Caco-2 cells, preincubation 20 to 24 hours; apical FaSSIF/HBSS 1% DMSO pH 6.0, basal HBSS 4% BSA pH 7.4; basal sample at 180 minutes

In the case of `CC[C@H](C)[C@@H]1NC(=O)[C@H](C)N(C)C(=O)[C@H]([C@@H](C)O)NC(=O)[C@H](Cc2ccccc2)N(C)C(=O)[C@H](COC(C)(C)C)NC(=O)[C@H](CC(C)C)N(C)C(=O)CN(C)C(=O)[C@H](Cc2ccccc2)N(C)C(=O)[C@H]([C@@H](C)CC)NC(=O)[C@H](CC(C)C)N(C)C(=O)CCN(C)C(=O)C[C@@H](C(=O)N2CCCCC2)NC(=O)[C@H](CC(C)C)N(C)C1=O` [pd110] ([NMeβAla][NMeL]I[NMeF][Sar][NMeL]S(tBu)[NMeF]T[NMeA]I[NMeL]D-Piperidide; lactam N-13), the microsomal CLint at 1 µM [1] is reported as 38.5 µL/min/mg, the “Mouse Hepatic Microsome CLh,int NADPH(-)” value [1] is reported as 30.5 µL/min/mg Protein and the Papp A→B [2] is reported as 0.43 ×10⁻⁶ cm/s. The “Caco2 Papp (10^-6 cm/sec)” value [3] was 0.43 10^-6 cm/sec.
In the case of `CC[C@H]1C(=O)N(C)[C@@H](CC(C)C)C(=O)N[C@@H]([C@@H](C)O)C(=O)N(C)[C@@H](C)C(=O)N(C)[C@@H](CC(C)C)C(=O)N[C@H](C(=O)N2CCCCC2)CC(=O)N(C)CCCC(=O)N[C@@H](CC(C)C)C(=O)N(C)[C@@H](CC(C)C)C(=O)N(C)[C@@H](C)C(=O)N(C)[C@@H](Cc2ccccc2)C(=O)N[C@@H](C)C(=O)N(C)[C@@H](Cc2ccccc2)C(=O)N1C` [pd117] ([NMeGABA]L[NMeL][NMeA][NMeF]A[NMeF][NMeAbu][NMeL]T[NMeA][NMeL]D-Piperidide; lactam N-13), the microsomal CLint at 1 µM [1] is reported as 25.9 µL/min/mg, the “Mouse Hepatic Microsome CLh,int NADPH(-)” value [1] is reported as 14.4 µL/min/mg Protein and the Papp A→B [2] is reported as 0.17 ×10⁻⁶ cm/s. For the same compound, the “Caco2 Papp (10^-6 cm/sec)” value [3] was 0.17 10^-6 cm/sec.
With `CC[C@H](C)[C@@H]1NC(=O)[C@H](Cc2ccccc2)N(C)C(=O)[C@H](CC(C)C)N(C)C(=O)[C@H](CC(C)C)NC(=O)[C@H](C)N(C)C(=O)C[C@@H](C(=O)N2CCCCC2)N(C)C(=O)[C@H](C)N(C)C(=O)[C@H](CC(C)C)NC(=O)[C@H](CC(C)C)N(C)C(=O)CNC(=O)[C@H]([C@@H](C)CC)N(C)C(=O)[C@H](Cc2ccccc2)N(C)C(=O)[C@H](C)NC1=O` [pd152] ([NMeA]L[NMeL][NMeF]IA[NMeF][NMeI]G[NMeL]L[NMeA][NMeD]-Piperidide; lactam N-13) the microsomal CLint at 1 µM [1] was 40.2 µL/min/mg, the “Mouse Hepatic Microsome CLh,int NADPH(-)” value [1] was 32.5 µL/min/mg Protein and the Papp A→B [2] was 1.02 ×10⁻⁶ cm/s. The “Caco2 Papp (10^-6 cm/sec)” value [3] was 1.02 10^-6 cm/sec.
For `CC[C@H](C)[C@@H]1NC(=O)[C@H](C)N(C)C(=O)C[C@@H](C(=O)N2CCCCC2)NC(=O)[C@H](CC)N(C)C(=O)[C@H](COC(C)(C)C)NC(=O)[C@H](CC(C)C)N(C)C(=O)[C@H](C)N(C)C(=O)[C@H](CC(C)C)N(C)C(=O)[C@H](Cc2ccccc2)N(C)C(=O)CN(C)C(=O)[C@H]([C@@H](C)O)NC(=O)[C@H](CC(C)C)N(C)C(=O)[C@H](C(C)C)NC(=O)[C@H](Cc2ccccc2)N(C)C1=O` [pd045] ([NMeA]I[NMeF]V[NMeL]T[Sar][NMeF][NMeL][NMeA][NMeL]S(tBu)[NMeAbu]D-Piperidide; lactam N-14), the microsomal CLint at 1 µM [1] was 43.9 µL/min/mg, the “Mouse Hepatic Microsome CLh,int NADPH(-)” value [1] was 26.4 µL/min/mg Protein and the Papp A→B [2] was 0.32 ×10⁻⁶ cm/s. The “Caco2 Papp (10^-6 cm/sec)” value [3] was 0.32 10^-6 cm/sec.
With `CC[C@@H]1NC(=O)[C@H]([C@@H](C)O)N(C)C(=O)CCN(C)C(=O)[C@H]([C@@H](C)CC)NC(=O)[C@H](Cc2ccccc2)N(C)C(=O)CN(C)C(=O)C[C@@H](C(=O)N2CCCCC2)NC(=O)[C@H]([C@@H](C)CC)N(C)C(=O)[C@H](COC(C)(C)C)NC(=O)[C@@H]2CCCN2C(=O)[C@H](CCc2ccccc2)NC(=O)[C@H](CC)N(C)C(=O)[C@H](C)NC(=O)[C@H](CC(C)C)N(C)C1=O` [pd038] ([Sar][NMeF]I[NMeβAla][NMeT][Abu][NMeL]A[NMeAbu][hPhe]PS(tBu)[NMeI]D-Piperidide; lactam N-14) the microsomal CLint at 1 µM [1] was 12 µL/min/mg, the “Mouse Hepatic Microsome CLh,int NADPH(-)” value [1] was 18.1 µL/min/mg Protein and the Papp A→B [2] was 0.04 ×10⁻⁶ cm/s. For the same compound, the “Caco2 Papp (10^-6 cm/sec)” value [3] was 0.04 10^-6 cm/sec.
For `CC[C@@H]1NC(=O)[C@H](Cc2ccccc2)N(C)C(=O)[C@H]([C@@H](C)O)NC(=O)[C@H](CC(C)C)N(C)C(=O)[C@H](C)N(C)C(=O)C[C@@H](C(=O)N2CCCCC2)N(C)C(=O)[C@H](CC(C)C)N(C)C(=O)[C@H]([C@@H](C)CC)N(C)C(=O)CN(C)C(=O)[C@H](CC(C)C)NC(=O)[C@H](Cc2ccccc2)N(C)C(=O)[C@H](CC(C)C)N(C)C(=O)[C@H]([C@@H](C)CC)N(C)C1=O` [pd167] ([NMeA][NMeL]T[NMeF][Abu][NMeI][NMeL][NMeF]L[Sar][NMeI][NMeL][NMeD]-Piperidide; lactam N-13), the microsomal CLint at 1 µM [1] was 35.9 µL/min/mg, the “Mouse Hepatic Microsome CLh,int NADPH(-)” value [1] was 33.0 µL/min/mg Protein and the Papp A→B [2] was 0.23 ×10⁻⁶ cm/s. The “Caco2 Papp (10^-6 cm/sec)” value [3] was 0.23 10^-6 cm/sec.
In the case of `CC(C)C[C@@H]1NC(=O)[C@H]([C@@H](C)O)N(C)C(=O)[C@@H](C(C)C)NC(=O)C[C@@H](C(=O)N2CCCCC2)NC(=O)[C@H](C(C)C)N(C)C(=O)[C@H](C)N(C)C(=O)[C@H](Cc2ccccc2)N(C)C(=O)[C@@H]2CCCN2C(=O)[C@H](CC(C)C)N(C)C(=O)CN(C)C(=O)[C@H](CCc2ccccc2)NC(=O)[C@H](CC(C)C)N(C)C(=O)[C@H](C(C)C)N(C)C1=O` [pd116] ([dV][NMeT]L[NMeV][NMeL][hPhe][Sar][NMeL]P[NMeF][NMeA][NMeV]D-Piperidide; lactam N-13), the microsomal CLint at 1 µM [1] is reported as 19.2 µL/min/mg, the “Mouse Hepatic Microsome CLh,int NADPH(-)” value [1] is reported as 14.9 µL/min/mg Protein and the Papp A→B [2] is reported as 0.19 ×10⁻⁶ cm/s. For the same compound, the “Caco2 Papp (10^-6 cm/sec)” value [3] was 0.19 10^-6 cm/sec.
For `CC[C@H](C)[C@@H]1NC(=O)[C@H](C)NC(=O)[C@H](CC(C)C)N(C)C(=O)[C@H](COC(C)(C)C)NC(=O)[C@H](CC(C)C)N(C)C(=O)[C@@H]2CCCN2C(=O)[C@H](Cc2ccccc2)NC(=O)[C@H]([C@@H](C)CC)N(C)C(=O)[C@H](CC(C)C)N(C)C(=O)CCCN(C)C(=O)C[C@@H](C(=O)N2CCCCC2)NC(=O)[C@H](Cc2ccccc2)N(C)C(=O)[C@H](CC)N(C)C1=O` [pd098] ([NMeGABA][NMeL][NMeI]FP[NMeL]S(tBu)[NMeL]AI[NMeAbu][NMeF]D-Piperidide; lactam N-13), the microsomal CLint at 1 µM [1] was 44.5 µL/min/mg, the “Mouse Hepatic Microsome CLh,int NADPH(-)” value [1] was 37.8 µL/min/mg Protein and the Papp A→B [2] was 0.57 ×10⁻⁶ cm/s. The “Caco2 Papp (10^-6 cm/sec)” value [3] was 0.57 10^-6 cm/sec.
In the case of `CC[C@H]1C(=O)N(C)[C@@H](Cc2ccccc2)C(=O)N(C)[C@@H](CC(C)C)C(=O)N[C@@H](CC(C)C)C(=O)N(C)[C@@H](C(C)C)C(=O)N[C@H](C)CC(=O)N(C)CC(=O)N(C)[C@@H](C(C)C)C(=O)N(C)[C@@H](CC(C)C)C(=O)N(C)[C@@H](C)C(=O)N(C)[C@@H](CC(C)C)C(=O)N[C@@H]([C@@H](C)O)C(=O)N(C)CC(=O)N1C` [pd140] (cyclo(L[NMeV][d(β3hA)][Sar][NMeV][NMeL][NMeA][NMeL]T[Sar][NMeAbu][NMeF][NMeL])), the microsomal CLint at 1 µM [1] is reported as 10.5 µL/min/mg, the “Mouse Hepatic Microsome CLh,int NADPH(-)” value [1] is reported as 10.3 µL/min/mg Protein and the Papp A→B [2] is reported as 0.31 ×10⁻⁶ cm/s. The “Caco2 Papp (10^-6 cm/sec)” value [3] was 0.31 10^-6 cm/sec.
In the case of `CCCCN1CC(=O)N(C)[C@@H](Cc2ccccc2)C(=O)N[C@@H](CC(C)C)C(=O)N(C)[C@@H](C(C)C)C(=O)N(C)[C@@H](C)C(=O)N[C@@H](COC(C)(C)C)C(=O)N(C)[C@@H](CC)C(=O)N(C)[C@H](C(=O)N2CCCCC2)CC(=O)N(C)CC(=O)N(C)[C@@H](Cc2ccccc2)C(=O)N[C@@H]([C@@H](C)CC)C(=O)N(C)[C@@H](CC(C)C)C(=O)N(C)[C@@H]([C@@H](C)O)C1=O` [pd168] ([Sar][NMeF]I[NMeL][NMeT][NBuGly][NMeF]L[NMeV][NMeA]S(tBu)[NMeAbu][NMeD]-Piperidide; lactam N-13), the microsomal CLint at 1 µM [1] is reported as 21.9 µL/min/mg, the “Mouse Hepatic Microsome CLh,int NADPH(-)” value [1] is reported as 21.8 µL/min/mg Protein and the Papp A→B [2] is reported as 1.11 ×10⁻⁶ cm/s. For the same compound, the “Caco2 Papp (10^-6 cm/sec)” value [3] was 1.11 10^-6 cm/sec.
